{
  "source": "patent US20040122209A1",
  "about": "“Products for regulating the degradation of collagen and methods for identifying same” (Shriners Hospital For Children, priority 2002, published 2004)",
  "assay_type_in_all_cases": "cell-based",
  "key": {"[1]": {"system": "bovine articular cartilage explant", "assay": "Collagenase-cleaved type II collagen (COL2-3/4C) in bovine articular cartilage explant culture", "settings": "0.1 and 1 μM from day 0; day 12; one way ANOVA", "procedure": "The cartilages were prepared as previously described (Dahlberg, L. et al. (2000) supra. In brief, the cartilage samples were washed three times with basal culture medium containing Dulbecco's modified Eagle's medium (DMEM; Gibco BRL, Life Technologies, Grand Island, N.Y.) with 20 mM HEAPS buffer (pH 7.4) (Gibco BRL), 45 mM NaHCO3, 100 units/ml penicillin, 100 μg/ml streptomycin and 150 μg/ml gentamycin sulphate (Medium A). Full-depth cartilage slices from a single area, around 20 mm×20 mm were cut vertical to the articular surface and then into cubes of approximately 2 mm×2 mm (5-7 cubes were randomly obtained and wet weights about 50-70 mg/well determined).\nThe cartilage was assigned to 48 well plate (ca 40 mg/well) and kept in Medium A supplemented with 50 μg/ml ascorbic acid, 0.1 mg/bovine serum albumin, 50 μg/ml insulin, 5.0 μg/ml and 5.0 μg/ml sodium DMEM alone at 37° C. in 95% air/5% CO2. The cartilage was precultured for 2 days and medium was changed at day 0. Thereafter medium (as described in pellet cultures) was replaced every four days. Various CNBr fragments and/or synthetic peptides were freshly added from day 0 at each medium change. Thereafter, cartilage explants and conditioned media were harvested and stored at −20° C.\nThe cell pellets and cartilage explant cultured for various times were digested for the extraction of collagenase-generated neoepitope COL2-3/4Cshort (Billinghurst, R. C. et al., (1997) supra) and denatured type II collagen epitope COL2-3/4m and total type II collagen (Hollander, A. P. et al. (1994a) supra), as previously described: Briefly, the harvested pellets were incubated overnight with 1.0 mg/ml α-chymotrypsin at 37° C. to cleave and solubilize denatured collagen leaving the above neoepitope and epitope intact. After inhibition of α-chymotrypsin activity with N-tosyl-L-phenelalanine-chloromethyl ketone (Sigma), the samples were centrifuged and the supernatants were removed and boiled for 10 min. The COL2-3/4Cshort epitope (hereafter referred to as COL2-3/4Cshort) generated by cleavage of type II collagen by collagenase (Billinghurst, R. C. et al. (1997) supra) and intrachain epitope (COL2-3/4m) exposed in denatured type II collagen (Hollander, A. P. et al. (1994a) supra) were measured in α-chymotrypsin extracts by immunoassay. The COL2-3/4Cshort epitope is detected in an ELISA assay using a rabbit antibody to the carboxyterminal cleavage neoepitope on the TCA piece generated by primary collagenase cleavage of type II collagen. The release of the COL2-3/4C epitope into media was also measured by immunoassay. Total contents in tissue/cells and media was recorded for COL2-3/^4Cshort epitope. The COL2-3/4m epitope was recorded in cells and tissue where it was concentrated. The remaining residues of pellets and explants were digested overnight with 1.0 mg/ml proteinase K at 56° C. to extract the remaining intact type II collagen and then boiled for 10 min to denature the enzyme. Total type II collagen content in the pellets and explant was determined from the collective amount of COL2-3/4m in both the α-chymotrypsin and proteinase K digests."}, "[2]": {"system": "adult bovine articular chondrocytes", "assay": "Collagenase-cleaved type II collagen (COL2-3/4C ELISA) in bovine chondrocyte pellet culture", "settings": "preliminary studies; denatured 50° C. for 20 min; data not shown", "procedure": "Adult bovine and human articular cartilage was obtained from metacarpophalangeal joints shortly (within 3 hours) after slaughter and from autopsy within 18 hr of death, respectively. Chondroctyes were released from freshly dissected articular cartilage specimens by sequential enzymatic digestion at 37° C. with trypsin and bacterial collagenase as previously described (Aimes, R. T., 1995). […]\nThe cell pellets and cartilage explant cultured for various times were digested for the extraction of collagenase-generated neoepitope COL2-3/4Cshort (Billinghurst, R. C. et al., (1997) supra) and denatured type II collagen epitope COL2-3/4m and total type II collagen (Hollander, A. P. et al. (1994a) supra), as previously described: Briefly, the harvested pellets were incubated overnight with 1.0 mg/ml α-chymotrypsin at 37° C. to cleave and solubilize denatured collagen leaving the above neoepitope and epitope intact. […] The COL2-3/4Cshort epitope (hereafter referred to as COL2-3/4Cshort) generated by cleavage of type II collagen by collagenase (Billinghurst, R. C. et al. (1997) supra) and intrachain epitope (COL2-3/4m) exposed in denatured type II collagen (Hollander, A. P. et al. (1994a) supra) were measured in α-chymotrypsin extracts by immunoassay. […] The release of the COL2-3/4C epitope into media was also measured by immunoassay. […]"}, "[3]": {"system": "bovine articular cartilage explant", "assay": "Proteoglycan (GAG) content and release in bovine explant culture", "settings": "0.1 and 1 μM from day 0", "procedure": "The cartilages were prepared as previously described (Dahlberg, L. et al. (2000) supra. In brief, the cartilage samples were washed three times with basal culture medium containing Dulbecco's modified Eagle's medium (DMEM; Gibco BRL, Life Technologies, Grand Island, N.Y.) with 20 mM HEAPS buffer (pH 7.4) (Gibco BRL), 45 mM NaHCO3, 100 units/ml penicillin, 100 μg/ml streptomycin and 150 μg/ml gentamycin sulphate (Medium A). Full-depth cartilage slices from a single area, around 20 mm×20 mm were cut vertical to the articular surface and then into cubes of approximately 2 mm×2 mm (5-7 cubes were randomly obtained and wet weights about 50-70 mg/well determined). The cartilage was assigned to 48 well plate (ca 40 mg/well) and kept in Medium A supplemented with 50 μg/ml ascorbic acid, 0.1 mg/bovine serum albumin, 50 μg/ml insulin, 5.0 μg/ml and 5.0 μg/ml sodium DMEM alone at 37° C. in 95% air/5% CO2. The cartilage was precultured for 2 days and medium was changed at day 0. Thereafter medium (as described in pellet cultures) was replaced every four days. Various CNBr fragments and/or synthetic peptides were freshly added from day 0 at each medium change. Thereafter, cartilage explants and conditioned media were harvested and stored at −20° C. In order to show the specificity of the peptide fragments of one embodiment on degradation of type II collagen as compared with proteoglycan, primarily aggrecan, sulphated glycosaminoglycan (GAG) content was determined in both the α-chymotrypsin and proteinase K digests for total proteoglycan (predominantly aggrecan) content in cell pellets, cartilage explants and also in conditioned media. Measurement of release of proteoglycan into media was tested using dimethylene blue dye binding as previously described (Dahlberg, L. et al. (2000) supra)."}},
  "data": [
    {"substance": "denatured type II collagen: denatured type II collagen purified from fetal bovine epiphyseal cartilage", "values": [
      {"measurement": "COL2-3/4C content in medium and cartilage", "setting": "[1]", "result": "no effect"},
      {"measurement": "difference between pellet cultures treated with and without denatured type II collagen", "setting": "[2]", "result": "no significant difference"},
      {"measurement": "GAG-release into culture media", "setting": "[3]", "result": "no effect"},
      {"measurement": "proteoglycan (GAG) contents", "setting": "[3]", "result": "no effect"}
    ]}
  ]
}
